Measurements as given in patent US20040010218A1, “Photodynamic therapy for the enhancement of vascular permeability to aid in drug delivery to diseased tissues” (priority 2002, published 2004).

System: murine Colo-26 tumors
Test: MR imaging of Colo-26 tumors 30 min after P-PDT
Format: in vivo
Conditions: P-PDT: 0.4 μmol/kg HPPH i.v., 24 h later 6 μmol/kg VBBO i.v., 3 h later 500 J/cm^2 at 619 nm; imaged 30 min after P-PDT; especially in the treated tumor
Description: FIG. 1 is a set of MR images of Colo-26 tumors taken 30 minutes after P-PDT to the tumor on the left of each image.
FIG. 1 illustrates the response of the vasculature in murine Colo-26 tumors to P-PDT. […] In this case, P-PDT involved i.v. injection of 0.4 μmol/kg HPPH (2-[1-hexyl-oxyethyl]-2-devinyl pyropheophoribde-a), followed 24 h later by i.v. injection of 6 μmol/kg VBBO (Victoria Blue-BO), followed 3 h later by local exposure of the tumor to 500 J/cm^2 of light at a wavelength of 619 nm. In Frame A, one can observe that the T2 weighted MRI image of the P-PDT treated tumor is markedly brighter than the control, which is believed to be due to increased water content because of enhanced edema and permeability in that tumor. Image intensity is further heightened by carbogen breathing as shown in Frame B of FIG. 1. […] Changes in signal intensity originate with the magnetic susceptibility of hemoglobin and are dependent on its oxygenation status. Oxyhemoglobin is diamagnetic, while deoxyhemoglobin is paramagnetic. The magnetic susceptibility differences between deoxyhemoglobin and surrounding tissue water create local field gradients that cause phase dispersion of nearby water protons, resulting in a loss of MR signal intensity. […]

CCCCCCOC(C)c1c(C)c2cc3nc(c4c5[nH]c(cc6nc(cc1[nH]2)C(C)=C6CC)c(C)c5C(=O)C4)[C@@H](CCC(=O)O)[C@@H]3C (stereo partly shown) [HPPH, 2-[1-hexyl-oxyethyl]-2-devinyl pyropheophoribde-a]
increase in MR image intensity during carbogen breathing: up to 40%
